# Results reported in patent publication US6627441B1, “Increasing levels of growth regulator and/or water stress during embryo development” (priority 1998, dated 2003).
# Experiments:
# Assay type in all cases: cell-based
# [1] = tested on: white spruce somatic embryos; test: PEG replacement during development, maturation frequency (Example 6); settings: treatment 2: PEG constant, lactose added from the third week; versus PEG control; FIG. 2
# Protocol: (§1) This experiment was carried out to observe the effect of replacing the non-permeating water stress with a permeating water stress during development. Thus, immature somatic embryos from suspension culture were precultured in 1/20 strength hormone medium for one week then transferred to maturation medium containing 3% sucrose, 20 μM ABA and adjusted to 290 mmol/kg with PEG. They were transferred to fresh medium weekly in which the osmoticum and ABA was increased. For the control (treatment 1) the PEG concentration was increased (as outlined in Example 4, treatment 6). In treatment 2, the PEG remained constant and water potential was increased by adding lactose (treatment 2). In treatment 3, PEG was increased after the first week, then lactose was added at the third and fourth weeks, and in the fifth week PEG was removed and replaced completely with lactose. Treatment 4 was the same as treatment 3, except that sucrose was used in place of lactose. Treatment 5 was similar to treatment 3, except that PEG was replaced with lactose earlier so that PEG was replaced totally by lactose by the fourth week. Total development time was six weeks.
# Each treatment comprised nine replicates. The number of embryos per treatment were scored and means prepared. […] The trend was that as PEG was replaced by permeating osmotica, the maturation frequency declined slightly. […]
# [2] = tested on: somatic seedlings of white spruce; test: Germination and shoot development after replacing PEG with alternative osmotica (Example 8); settings: for shoot development frequency of somatic seedlings: after 4-5 weeks growth
# Protocol: as §1
# White spruce somatic embryos were produced using all treatments described in Example 6 (replacement of PEG with sucrose or lactose). […] Embryos were desiccated for two weeks, then rehydrated and visually selected for subsequent transfer to fresh medium. The embryos from all treatments germinated to produce root and epicotyl elongation (i e., 100% germination). Subsequent growth differed amongst the treatments. After four to five weeks growth, 87% of somatic seedlings from treatment 1 had visible new shoot growth (new needles). All other treatments had much lower shoot emergence frequencies.
# [3] = tested on: Douglas fir somatic embryos; test: Douglas fir somatic embryogenesis (Example 11); settings: replacing PEG at week 5 or week 6; compared with PEG being maintained
# Protocol: Douglas fir may be cultured using sucrose at 1-3% (30-90 mM), however, other sugars may be used at the same concentrations. Maintenance cultures usually contain the sugar at about 1%. […] Douglas fir embryogenic tissue was induced from developing seed. Embryos contained in megametophytes were induced and maintained on TX maintenance medium having 1% sucrose. This medium contained 0.2 g/L glutamine and 0.2 g/L casein hydrolysate. Selected embryogenic tissue was subcultured biweekly per petri dish. Medium was solidified with 2.4 g/L PHYTAGEL™. This medium contained 9 μM 2,4-D and 4.5 μM BA. Liquid suspension cultures were maintained in flasks containing 50 mL liquid maintenance medium Liquid cultures were subcultured weekly. For maturation, the embryogenic suspension was first precultured in liquid medium without growth regulators, and subcultured weekly. The water potential of the maintenance cultures and precultures remained below 150 mmol/kg. After one or two weeks of preculture, 1 to 2 g of filtered tissue was resuspended in 10 mL fresh medium and 0.75 mL of the new suspension was pipetted onto the solid maturation medium. Maturation medium contained calcium chloride at 105 mg/L, and ammonium nitrate was included at 400 mg/L. Glutamine was used at 0.8 g/L for the first week then reduced to 0.1 g/L thereafter. Casein hydrolysate was maintained at 0.2 g/L. The sugar was increased to 2-3% and the medium was solidified with Phytagel at 2.8 to 3.4 g/L. ABA was added into the medium after filter sterilization. The maturation medium also contained PEG. The ABA and water potential were raised following the schedule in the following table.
# In some instances, the PEG was reduced and the water potential made up to the desired level using lactose at 0% in the first week, 1% in week 2, 4% in weeks 3 and 4, 5% in week 5, and 6% in week 6. Although this allowed a firmer gel to set than otherwise would occur with PEG alone, it may not provide any other benefit over full PEG (see, for example, Table 8), particularly if liquid culture medium is used. […] The embryos were desiccated and stored in a freezer as described for spruce, or germinated directly without desiccation. For germination, embryos were placed on half-strength basal medium containing 0.4 g/L calcium nitrate, 0.2 g/L ammonium nitrate, no hormones and 2% sucrose and 0.6% agar. These were grown in the light.
# [4] = tested on: white spruce somatic embryos; test: Effect of water stress and ABA on somatic embryo moisture contents (Example 4); settings: treatment 2: mannitol 290, 400, 540 mmol/kg with ABA 20, 30, 40 μM; six weeks
# Protocol: Water potentials were measured for liquid media containing various osmotica at a range of concentrations, which were plotted on a curve. Determinations were made using a vapour pressure osmometer (Wescor). Moisture content determinations were done using methods described previously by Attree et al. (U.S. Pat. No. 5,464,769).
# Embryos were cultured on medium containing 3% sucrose and ABA, with additional osmoticum adjusted to vary water potentials, as shown in Table 4.
# Embryos were cultured for six weeks and moisture contents determined. Determinations for each treatment were made weekly, with three replicates per treatment. 50 embryos per replicate were used. In some instances, particularly for the control with low osmoticum, insufficient embryos were produced. In these cases, the minimum number of embryos used per replicate was thirty. For weeks 0 to 2, the embryos were too small to be used for moisture content determinations, so whole tissue was used instead.
Structure (SMILES),maturation frequency [1],"shoot development frequency of somatic seedlings ([2]; Treatment 2: 6.6% lactose, partial PEG replacement) [%]","shoot development frequency of somatic seedlings ([2]; Treatment 3: 10% lactose, mid replacement) [%]",shoot development frequency of somatic seedlings ([2]; Treatment 5: 10% lactose early replacement) [%],appearance of embryos before desiccation ([2]; treatment 5 of Example 6 (PEG replaced early with lactose)),embryo development result [3],greening of embryos [4],shoot development frequency of somatic seedlings ([2]; Treatment 4: 13% sucrose mid replacement) [%],appearance of embryos before desiccation ([2]; treatment 4 of Example 6 (PEG replaced with sucrose))
OC[C@H]1O[C@@H](O[C@H]2[C@H](O)[C@@H](O)C(O)O[C@@H]2CO)[C@H](O)[C@@H](O)[C@H]1O (stereo partly shown) [lactose],slight decline,1.5,76.5,49.2,very slight splitting of the root cap region,very good results,–,–,–
OC[C@@H](O)[C@@H](O)[C@H](O)[C@H](O)CO [mannitol],–,–,–,–,–,–,greening was prevented,–,–
OC[C@H]1O[C@@](CO)(O[C@H]2O[C@H](CO)[C@@H](O)[C@H](O)[C@H]2O)[C@@H](O)[C@@H]1O [sucrose],–,–,–,–,–,very good results,–,1.6,very slight splitting of the root cap region
